The test system of assay [1] is Alternaria brassicae. In words: Efficacy against Alternaria brassicae (in vitro), growth on PDA medium. The following applies: radial growth after 14 days. In kind it is cell-based. As to the method: The growth of Alternaria brassicae was followed on PDA medium containing the compounds alone or in mixtures. The PDA medium is prepared by mixing 39 grams of PDA (Merck) in 1 litter of demineralised water. The medium is sterilized by autoclave 15 minutes at 121° C. The compounds are dissolved in acetone and added to the medium before pouring it in Petri dishes. After medium drying, the fungus is inoculated on the medium and allowed to growth at 19° C. The percentage of efficacy is noted after 14 days of growth (measurement of the radial growth) of the fungus in comparison with a control. […]

The subject of another assay is Sphaerotheca fuliginea. As to the kind of experiment: Efficacy against Sphaerotheca fuliginea on gherkin plants (preventive spray). In kind it is in vivo. The settings on record: Podosphaera fuliginea, 504 h, grading 21 days after contamination. As for the experimental part:
(§1) The active ingredients tested are prepared by potter homogenisation in a mixture of acetone/tween/water. This suspension is then diluted with water to obtain the desired active material concentration.
Gherkin plants (Vert petit de Paris variety) in starter cups, sown on a 50/50 peat soil-pozzolana substrate and grown at 20° C./23° C., are treated at the 2-leaves stage by spraying with the aqueous suspension described above. Plants, used as controls, are treated with an aqueous solution not containing the active material.
After 24 hours, the plants are contaminated by spraying them with an aqueous suspension of Sphaerotheca fuliginea spores (100 000 spores per ml). The spores are collected from a contaminated plants. The contaminated gherkin plants are incubated at about 20° C./25° C. and at 60/70% relative humidity.
Grading (% of efficacy) is carried out 21 days after the contamination, in comparison with the control plants.

In another assay the test system is Botrytis cinerea. As to the kind of experiment: Efficacy against Botrytis cinerea on gherkin plants (preventive spray). In kind it is in vivo. The following applies: grading 5 to 7 days after contamination. As to the method:
as §1
Gherkin plants (Petit vert de Paris variety) in starter cups, sown on a 50/50 peat soil-pozzolana substrate and grown at 18-20° C., are treated at the cotyledon Z11 stage by spraying with the aqueous suspension described above. Plants, used as controls, are treated with an aqueous solution not containing the active material.
After 24 hours, the plants are contaminated by depositing drops of an aqueous suspension of Botrytis cinerea spores (150,000 spores per ml) on upper surface of the leaves. The spores are collected from a 15-day-old culture and are suspended in a nutrient solution composed of: • 20 g/L of gelatine • 50 g/L of cane sugar • 2 g/L of NH4NO3 • 1 g/L of KH2PO4
The contaminated gherkin plants are settled for 5/7 days in a climatic room at 15-11° C. (day/night) and at 80% relative humidity. Grading is carried out 5 to 7 days after contamination, in comparison with the control plants.
Gherkin plants (Petit vert de Paris variety) in starter cups, sown on a 50/50 peat soil-pozzolana substrate and grown at 18-20° C., are treated at the cotyledon Z 11 stage by spraying with the aqueous suspension described above. Plants, used as controls, are treated with an aqueous solution not containing the active material.
(§2) The formulated compounds are diluted with water to obtain the desired active material concentration.

In assay [2] the test system is Erysiphe graminis f. sp. tritici. As to the kind of experiment: Efficacy against Erysiphe graminis f. sp. tritici on wheat plants (preventive spray). The class given is in vivo. The settings on record: grading 7 to 14 days after contamination. As to the method:
as §1
Wheat plants (Audace variety) in starter cups, sown on 50/50 peat soil-pozzolana substrate and grown at 12° C., are treated at the 1-leaf stage (10 cm tall) by spraying with the aqueous suspension described above.
(§3) Plants, used as controls, are treated with an aqueous solution not containing the active material.
After 24 hours, the plants are contaminated by dusting them with Erysiphe graminis f. sp. tritici spores, the dusting being carried out using diseased plants.
Grading is carried out 7 to 14 days after the contamination, in comparison with the control plants.
as §2
Wheat plants (Audace variety) in starter cups, sown on 50/50 peat soil-pozzolana substrate and grown at 12° C., are treated at the 1-leaf stage (10 cm tall) by spraying with the aqueous suspension described above. Plants, used as controls, are treated with an aqueous solution not containing the active material.

Assay [3] relates to Alternaria brassicae. As to the kind of experiment: Efficacy against Alternaria brassicae on radish plants (preventive spray). The class given is in vivo. The following applies: Example 13, dose 111 ppm, grading 6 to 7 days after contamination. As to the method:
as §2
Radish plants (Pernot variety) in starter cups, sown on a 50/50 peat soil-pozzolana substrate and grown at 18-20° C., are treated at the cotyledon stage by spraying with the aqueous suspension described above.
as §3
After 24 hours, the plants are contaminated by spraying them with an aqueous suspension of Alternaria brassicae spores (40,000 spores per cm^3). The spores are collected from a 12-13-day-old culture.
The contaminated radish plants are incubated for 6-7 days at about 18° C., under a humid atmosphere.
Grading is carried out 6 to 7 days after the contamination, in comparison with the control plants.

A further assay relates to Pyrenophora teres. As to the kind of experiment: Efficacy against Pyrenophora teres on barley plants (preventive spray). In kind it is in vivo. The settings on record: 288 h, grading 12 days after contamination. As for the experimental part:
as §1
Barley plants (Express variety) in starter cups, sown on a 50/50 peat soil-pozzolana substrate and grown at 12° C., are treated at the 1-leaf stage (10 cm tall) by spraying with the aqueous suspension described above. Plants, used as controls, are treated with an aqueous solution not containing the active material.
After 24 hours, the plants are contaminated by spraying them with an aqueous suspension of Pyrenophora teres spores (12 000 spores per ml). The spores are collected from a 12-day-old culture. The contaminated barley plants are incubated for 24 hours at about 20° C. and at 100% relative humidity, and then for 12 days at 80% relative humidity.
Grading (% of efficacy) is carried out 12 days after the contamination, in comparison with the control plants.

As to `CO/C=C(/C(=O)OC)c1ccccc1Oc1cc(Oc2ccccc2C#N)ncn1` [Azoxystrobin, azoxystrobin], the “% Efficacy” value in the assay with Alternaria brassicae [1] (Example 3, dose 0.025 ppm) is 38%; in the assay on Alternaria brassicae [1] (Example 3, dose 0.05 ppm), 41%; in the assay on Alternaria brassicae [1] (Example 3, dose 0.1 ppm), 47%; in the assay with Alternaria brassicae [1] (Example 3, dose 0.25 ppm) it was 56%; in the assay with Alternaria brassicae [1] (Example 3, dose 0.5 ppm) it was 47%; in the assay on Alternaria brassicae [1] (Example 3, dose 1 ppm) it was 48%. In addition, in the assay on Alternaria brassicae [1] (Example 3, dose 2.5 ppm), the “% Efficacy” value is given as 49%.

Compound `O=C(Nc1ccccc1-c1ccc(Cl)cc1)c1cccnc1Cl` [Boscalid, boscalid, reference compound] displayed an Emax at 4 ppm in the assay with Sphaerotheca fuliginea (Example 11, dose 4 ppm) of 0%. Besides, the Emax at 8 ppm in the assay with Sphaerotheca fuliginea (Example 11, dose 8 ppm) is 10%. Besides, in the assay on Sphaerotheca fuliginea (Example 11, dose 15 ppm), the Emax at 15 ppm amounted to 45%.

`CNC(=O)C(=NOC)c1ccccc1Oc1ncnc(Oc2cccc(Cl)c2C)c1F` [Compound A, 2-{2-[6-(3-Chloro-2-methylphenoxy)-5-fluoro-pyrimidin-4-yloxy]-phenyl}2-methoxyimino-N-methylacetamide] registered an Emax at 37 ppm in the assay with Botrytis cinerea (Botrytis cinerea, Example 8, dose 37 ppm) of 0%. Also, the Emax at 111 ppm in the assay on Botrytis cinerea (Botrytis cinerea, Example 8, dose 111 ppm) was 0%. Moreover, the Emax at 333 ppm in the assay with Botrytis cinerea (Botrytis cinerea, Example 8, dose 333 ppm) turned out to be 0%.

In the assay on Botrytis cinerea (Botrytis cinerea, Example 10, dose 4 ppm), `Cc1nn(C)c(F)c1C(=O)Nc1ccccc1C(C)CC(C)C` (centres unmarked) [Compound B, N-[2-(1,3-dimethyl-butyl)-phenyl]-5-fluoro-1,3-dimethyl-1H-pyrazole-4-carboxamide] gave an Emax at 4 ppm of 32%.

`Cn1cc(C(=O)Nc2ccc(F)cc2-c2ccc(Cl)c(Cl)c2)c(C(F)F)n1` [Compound C, N-(3′,4′-dichloro-5-fluorobiphenyl-2-yl)-3-(difluoro-methyl)-1-methyl-1H-pyrazole-4-carboxamide]: in the assay on Sphaerotheca fuliginea (Example 12, dose 31.2 ppm), the Emax at 31.2 ppm was 0%. The same compound yielded an Emax at 62.5 ppm with Sphaerotheca fuliginea (Example 12, dose 62.5 ppm) of 0%.

`CC(C)CC(C)c1sccc1NC(=O)c1cn(C)nc1C(F)(F)F` (centres unmarked) [Compound D, N-[2-(1,3-dimethylbutyl)-thiophen-3-yl]1-methyl-3-(trifluoromethyl)-1H-pyrazole-4-carboxamide] displayed an Emax at 250 ppm with Botrytis cinerea (Botrytis cinerea, Example 14, dose 250 ppm, formulated compounds) of 60%.

`CNC(=O)/C(=N/OC)c1ccccc1COc1cc(C)ccc1C` [Dimoxystrobin, dimoxystrobin, reference compound]: in assay [2] (Example 9, dose 62.5 g/ha, formulated compounds), the “% Efficacy” value was found to be 0%.

In the assay with Alternaria brassicae [3], `CSC1=N[C@@](C)(c2ccccc2)C(=O)N1Nc1ccccc1` [Fenamidone, fenamidone, reference compound] gave an Emax at 111 ppm of 55%.

With `CO/N=C(/C1=NOCCO1)c1ccccc1Oc1ncnc(Oc2ccccc2Cl)c1F` [Fluoxastrobin, fluoxastrobin, reference compound], in assay [2] (Blumeria graminis, Example 4, dose 15 ppm), the Emax at 15 ppm was 20%.

In the assay on Botrytis cinerea (Botrytis cinerea, Example 5, dose 37 ppm), `CO/N=C(/C(=O)OC)c1ccccc1COc1ccccc1C` [Kresoxim-methyl, kresoxim-methyl, reference compound] had an Emax at 37 ppm of 0%. In the assay with Botrytis cinerea (Botrytis cinerea, Example 5, dose 111 ppm), this compound yielded an Emax at 111 ppm of 0%. Also, in the assay on Botrytis cinerea (Botrytis cinerea, Example 5, dose 333 ppm), the Emax at 333 ppm stood at 0%.

Consider `CO/C=C(/C(=O)OC)c1ccccc1COc1cccc(C(F)(F)F)n1` [Picoxystrobin, picoxystrobin, reference compound], for which the “% Efficacy” value with Botrytis cinerea (Example 6, dose 37 ppm) worked out at 0%; with Botrytis cinerea (Example 6, dose 111 ppm), 35%; with Botrytis cinerea (Example 6, dose 333 ppm) it was 40%.

In turn, `COC(=O)N(OC)c1ccccc1COc1ccn(-c2ccc(Cl)cc2)n1` [Pyraclostrobin, pyraclostrobin, reference compound] displayed an Emax at 37 ppm in the assay with Botrytis cinerea (Botrytis cinerea, Example 7, dose 37 ppm) of 0%. This compound registered an Emax at 111 ppm in the assay with Botrytis cinerea (Botrytis cinerea, Example 7, dose 111 ppm) of 0%. Besides, the Emax at 333 ppm in the assay on Botrytis cinerea (Botrytis cinerea, Example 7, dose 333 ppm) was 0%.

As to `CON=C(C(=O)OC)c1ccccc1CON=C(C)c1cccc(C(F)(F)F)c1` [Trifloxystrobin, trifloxystrobin], the Emax at 4 g/ha with Pyrenophora teres (Example 1, dose 4 g/ha) turned out to be 50%. The Emax at 8 g/ha in the assay on Pyrenophora teres (Example 1, dose 8 g/ha) is 70%. In the assay with Alternaria brassicae [1] (Alternaria brassicae, 336 h, Example 2, dose 0.025 ppm), the Emax at 0.025 ppm amounted to 45%. This compound also registered an Emax at 0.05 ppm in the assay on Alternaria brassicae [1] (Alternaria brassicae, 336 h, Example 2, dose 0.05 ppm) of 44%. The compound also gave an Emax at 0.1 ppm with Alternaria brassicae [1] (Alternaria brassicae, 336 h, Example 2, dose 0.1 ppm) of 45%. In addition, the Emax at 0.25 ppm in the assay with Alternaria brassicae [1] (Alternaria brassicae, 336 h, Example 2, dose 0.25 ppm) came to 53%. The same compound displayed an Emax at 0.5 ppm with Alternaria brassicae [1] (Alternaria brassicae, 336 h, Example 2, dose 0.5 ppm) of 60%. The compound further came in with an Emax at 1 ppm with Alternaria brassicae [1] (Alternaria brassicae, 336 h, Example 2, dose 1 ppm) of 65%. Further, the Emax at 2.5 ppm in the assay on Alternaria brassicae [1] (Alternaria brassicae, 336 h, Example 2, dose 2.5 ppm) is 71%.

These data come from patent US9445590B2, “Fungicidal composition comprising a pyridylethylbenzamide derivative and a compound capable of inhibiting the transport of electrons of the respiratory chain in phytopathogenic fungal organisms” (BAYER INTELLECTUAL PROPERTY GMBH, priority 2004, dated 2016).
